# From patent publication US7799821B2, “Therapeutic compounds” (Allergan, Inc., priority 2004, dated 2010)
# Read-outs that look alike come from different tables or passages of the source.
# Assays:
# [1] = target: T1, hEP4/Gqs5 (Homo sapiens, UniProt P35408); assay: FLIPR calcium signal, hEP4; format: cell-based; settings: unit inferred; read-out: EP4 data flipr EC50
# T1 construct: expressed in transfected cells; host or cells: HEK-293(EBNA)
# Experimental: (§1) HEK-293(EBNA) cells, stably expressing one type or subtype of recombinant human prostaglandin receptors (prostaglandin receptors expressed: hDP/Gqs5; hEP1; hEP2/Gqs5; hEP3A/Gqi5; hEP4/Gqs5; hFP; hIP; hTP), were cultured in 100 mm culture dishes in high-glucose DMEM medium containing 10% fetal bovine serum, 2 mM 1-glutamine, 250 μg/ml geneticin (G418) and 200 μg/ml hygromycin B as selection markers, and 100 units/ml penicillin G, 100 μg/ml streptomycin and 0.25 μg/ml amphotericin B. • (b) Calcium Signal Studies on the FLIPR™
# (§2) Cells were seeded at a density of 5×10^4 cells per well in Biocoat® Poly-D-lysine-coated black-wall, clear-bottom 96-well plates (Becton-Dickinson) and allowed to attach overnight in an incubator at 37° C. Cells were then washed two times with HBSS-HEPES buffer (Hanks Balanced Salt Solution without bicarbonate and phenol red, 20 mM HEPES, pH 7.4) using a Denley Cellwash plate washer (Labsystems). After 45 minutes of dye-loading in the dark, using the calcium-sensitive dye Fluo-4 AM at a final concentration of 2 μM, plates were washed four times with HBSS-HEPES buffer to remove excess dye leaving 100 μl in each well. Plates were re-equilibrated to 37° C. for a few minutes.
# (§3) Cells were excited with an Argon laser at 488 nm, and emission was measured through a 510-570 nm bandwidth emission filter (FLIPR™, Molecular Devices, Sunnyvale, Calif.). Drug solution was added in a 50 μl volume to each well to give the desired final concentration. The peak increase in fluorescence intensity was recorded for each well. On each plate, four wells each served as negative (HBSS-HEPES buffer) and positive controls (standard agonists: BW245C (hDP); PGE2 (hEP1; hEP2/Gqs5; hEP3A/Gqi5; hEP4/Gqs5); PGF2α (hFP); carbacyclin (hIP); U-46619 (hTP), depending on receptor). The peak fluorescence change in each drug-containing well was then expressed relative to the controls.
# (§4) Compounds were tested in a high-throughput (HTS) or concentration-response (CoRe) format. In the HTS format, forty-four compounds per plate were examined in duplicates at a concentration of 10^−5 M. To generate concentration-response curves, four compounds per plate were tested in duplicates in a concentration range between 10^−5 and 10^−11 M. The duplicate values were averaged. In either, HTS or CoRe format each compound was tested on at least 3 separate plates using cells from different passages to give an n≧3.
# [2] = target: T2, hEP2/Gqs5 (Homo sapiens, UniProt P43116); assay: FLIPR calcium signal, hEP2; format: cell-based
# T2 construct: expressed in transfected cells; host or cells: HEK-293(EBNA)
# Experimental: as §1, §2, §3, §4
# [3] = target: T3, human EP2 receptors (Homo sapiens, UniProt P43116); assay: Competition radioligand binding ([3H]PGE2), EP2; settings: unit inferred; read-out: EP2 data Ki
# T3 construct: expressed in transfected cells; host or cells: HEK 293
# Experimental: Competition binding experiments were performed in a medium containing Hank's balanced salt solution, […], membranes (˜60 μg protein) or 2×10^5 cells from HEK 293 cells stably expressing human EP2 receptors, [^3H]PGE2 (10 nM) and various concentrations of test compounds in a total volume of 300 μl. Reaction mixtures were incubated at 23° C. for 60 min, and were filtered over Whatman GF/B filters under vacuum. Filters were washed three times with 5 ml ice-cold buffer containing 50 mM Tris/HCl (pH 7.3). Non-specific binding was estimated in the presence of excess unlabeled PGE2 (10 μM). Binding data fitted to the binding model for a single class of binding sites, using nonlinear regression analysis. IC50 values thus obtained were converted to Ki using the equation of Ki=(IC50/(1+[L]/KD) where [L] represents PGE2 concentration (10 nM) and KD the dissociation constant for [^3H]PGE2 at human EP2 receptors (40 nM).
# (§5) HEK-293 cells stably expressing the human or feline FP receptor, or EP1, EP2, or EP4 receptors were washed with TME buffer, scraped from the bottom of the flasks, and homogenized for 30 sec using a Brinkman PT 10/35 polytron. TME buffer was added to achieve a final 40 ml volume in the centrifuge tubes (the composition of TME is 100 mM TRIS base, 20 mM MgCl2, […]; 10N HCl is added to achieve a pH of 7.4).
# (§6) The cell homogenate was centrifuged at 19000 r.p.m. for 20 min at 4° C. using a Beckman Ti-60 rotor. The resultant pellet was resuspended in TME buffer to give a final 1 mg/ml protein concentration, as determined by Biorad assay. Radioligand binding competition assays vs. [^3H-]17 —phenyl PGF2α (5 nM) were performed in a 100 μl volume for 60 min. Binding reactions were started by adding plasma membrane fraction. The reaction was terminated by the addition of 4 ml ice-cold TRIS-HCl buffer and rapid filtration through glass fiber GF/B filters using a Brandel cell harvester. The filters were washed 3 times with ice-cold buffer and oven dried for one hour.
# (§7) [^3H-] PGE2 (specific activity 180 Ci mmol) was used as the radioligand for EP receptors. [^3H] 17-phenyl PGF2α was employed for FP receptor binding studies. Binding studies employing EP1, EP2, EP4 and FP receptors were performed in duplicate in at least three separate experiments. A 200 μl assay volume was used. Incubations were for 60 min at 25° C. and were terminated by the addition of 4 ml of ice-cold 50 mM TRIS-HCl, followed by rapid filtration through Whatman GF/B filters and three additional 4 ml washes in a cell harvester (Brandel). Competition studies were performed using a final concentration of 5 nM [^3H]—PGE2, or 5 nM [^3H] 17-phenyl PGF2α and non-specific binding determined with 10^−5M of unlabeled PGE2, or 17-phenyl PGF2α, according to receptor subtype studied.
# [4] = target: T4, EP4 receptors (Homo sapiens, UniProt P35408); assay: Radioligand binding ([3H]PGE2), EP4; settings: unit inferred; read-out: EP4 data KI
# T4 construct: expressed in transfected cells; host or cells: HEK-293
# Experimental: as §5, §6, §7
# [5] = target: T5, HEK-EBNA cells expressing a PG EP2 receptor subtype (Homo sapiens, UniProt P43116); assay: cAMP assay, EP2; format: cell-based; settings: unit inferred; read-out: EP2 data cAMP EC50
# T5 construct: expressed in transfected cells; host or cells: HEK-EBNA
# Experimental: A 384-well drug plate was prepared to contain 6 test compounds, PGE2 and cAMP in 16 serial dilutions in triplicate, using a Biomek station. HEK-EBNA cells expressing a target PG receptor subtype (EP2 or EP4) were suspended in a stimulation buffer (HBSS, 0.1% BSA, 0.5 mM IBMX and 5 mM HEPES, pH 7.4) in a density of 10^4 cells/5 μl. The reaction was initiated by mixing 5 μL drug dilutions with 5 μl of HEK-EBNA cells in a well, carried out for 30 min at room temperature, and followed by the addition of 5 μl anti-cAMP acceptor beads in the control buffer with Tween-20 (25 mM NaCl, 0.03% Tween-20, 5 mM HEPES, pH7.4). After 30 min in the dark at room temperature, the mixtures were incubated with 15 μl biotinylated-cAMP/strepavidin donor beads in Lysis/Detection buffer (0.1% BSA, 0.3% Tween-20 and 5 mM HEPES, pH7.4) for 45 min at the room temperature. Fluorescence changes were read using a Fusion-alpha HT microplate reader.
# [6] = target: T6, hDP/Gqs5 (Homo sapiens, UniProt Q13258); assay: FLIPR calcium signal, hDP; format: cell-based
# T6 construct: expressed in transfected cells; host or cells: HEK-293(EBNA)
# T6 sequence (Q13258 1-359): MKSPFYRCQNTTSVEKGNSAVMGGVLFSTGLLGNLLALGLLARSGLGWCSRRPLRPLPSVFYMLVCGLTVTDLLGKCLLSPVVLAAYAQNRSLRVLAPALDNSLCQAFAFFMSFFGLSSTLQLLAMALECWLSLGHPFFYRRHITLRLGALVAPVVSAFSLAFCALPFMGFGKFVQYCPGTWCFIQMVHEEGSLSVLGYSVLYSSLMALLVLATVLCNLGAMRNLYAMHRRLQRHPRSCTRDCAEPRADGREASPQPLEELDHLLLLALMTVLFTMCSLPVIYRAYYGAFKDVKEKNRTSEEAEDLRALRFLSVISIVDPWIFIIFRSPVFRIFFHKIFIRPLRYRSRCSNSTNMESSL
# Experimental: as §1, §2, §3, §4
# [7] = target: T7, hTP (Homo sapiens, UniProt P21731); assay: FLIPR calcium signal, hTP; format: cell-based; settings: read-out: FUNCTIONAL Ca2+ EC50 HTP
# T7 construct: expressed in transfected cells; host or cells: HEK-293(EBNA)
# T7 sequence (P21731 1-343): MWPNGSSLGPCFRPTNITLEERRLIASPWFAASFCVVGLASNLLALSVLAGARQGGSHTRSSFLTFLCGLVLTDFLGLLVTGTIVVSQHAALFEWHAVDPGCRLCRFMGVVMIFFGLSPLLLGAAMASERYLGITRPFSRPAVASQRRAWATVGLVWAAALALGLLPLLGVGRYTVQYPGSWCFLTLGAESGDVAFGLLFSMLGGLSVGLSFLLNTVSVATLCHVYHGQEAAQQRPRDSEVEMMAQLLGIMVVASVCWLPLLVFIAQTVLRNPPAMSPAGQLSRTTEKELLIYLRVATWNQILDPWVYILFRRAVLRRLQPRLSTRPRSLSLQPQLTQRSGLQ
# Experimental: as §1, §2, §3, §4
# [8] = target: T8, hEP3A/Gqi5 (Homo sapiens, UniProt P43115); assay: FLIPR calcium signal, hEP3A; format: cell-based; settings: read-out: Other Receptors EC50 hEP3A
# T8 construct: expressed in transfected cells; host or cells: HEK-293(EBNA)
# T8 sequence (P43115 1-390): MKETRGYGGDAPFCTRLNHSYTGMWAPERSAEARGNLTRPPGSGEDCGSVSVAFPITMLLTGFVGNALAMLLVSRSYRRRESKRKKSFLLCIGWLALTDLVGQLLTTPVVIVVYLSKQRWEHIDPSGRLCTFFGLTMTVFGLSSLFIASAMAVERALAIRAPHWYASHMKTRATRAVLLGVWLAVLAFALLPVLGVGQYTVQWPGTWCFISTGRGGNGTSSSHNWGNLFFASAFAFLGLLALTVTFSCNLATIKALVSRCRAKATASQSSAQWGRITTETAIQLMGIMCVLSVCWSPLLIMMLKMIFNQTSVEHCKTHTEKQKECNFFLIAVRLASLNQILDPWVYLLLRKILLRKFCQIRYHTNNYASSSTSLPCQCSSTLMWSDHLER
# Experimental: as §1, §2, §3, §4
# [9] = unit inferred, other columns of the table in nM, read-out: EP2 data flipr EC50
# [10] = read-out: Other Receptors EC50 hDP
# T4 sequence (P35408 whole entry): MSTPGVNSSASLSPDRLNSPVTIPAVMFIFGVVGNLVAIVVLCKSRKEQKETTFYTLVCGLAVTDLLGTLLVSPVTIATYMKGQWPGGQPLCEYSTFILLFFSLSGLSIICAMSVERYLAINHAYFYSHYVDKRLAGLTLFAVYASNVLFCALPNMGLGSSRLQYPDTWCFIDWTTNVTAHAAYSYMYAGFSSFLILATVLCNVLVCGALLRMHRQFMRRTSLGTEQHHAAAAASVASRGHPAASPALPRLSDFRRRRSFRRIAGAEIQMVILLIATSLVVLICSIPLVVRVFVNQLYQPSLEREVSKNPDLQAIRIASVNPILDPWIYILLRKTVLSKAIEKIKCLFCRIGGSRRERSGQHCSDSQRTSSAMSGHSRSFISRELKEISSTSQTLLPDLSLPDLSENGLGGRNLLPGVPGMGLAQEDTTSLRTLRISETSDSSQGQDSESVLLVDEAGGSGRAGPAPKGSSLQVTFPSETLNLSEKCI
# T1 sequence (P35408 whole entry): as above
# T5 sequence (P43116 whole entry): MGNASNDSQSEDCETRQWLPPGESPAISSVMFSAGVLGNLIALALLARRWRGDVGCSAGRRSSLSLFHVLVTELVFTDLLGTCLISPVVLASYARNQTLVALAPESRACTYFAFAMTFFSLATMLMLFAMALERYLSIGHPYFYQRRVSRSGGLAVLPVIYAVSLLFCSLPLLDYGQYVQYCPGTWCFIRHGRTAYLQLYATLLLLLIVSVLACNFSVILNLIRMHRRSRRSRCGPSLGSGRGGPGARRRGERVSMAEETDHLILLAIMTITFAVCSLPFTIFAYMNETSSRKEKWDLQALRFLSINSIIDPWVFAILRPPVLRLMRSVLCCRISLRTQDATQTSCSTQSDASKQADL
# T2 sequence (P43116 whole entry): as above
# T3 sequence (P43116 whole entry): as above
EC50 [1],"EC50 [2, 9]",Ki [3],Ki [4],EC50 [5],"EC50 [6, 10]",EC50 [7],EC50 ([2]; read-out: FUNCTIONAL Ca2+ EC50 HEP2),EC50 [8],EC50 ([6]; read-out: FUNCTIONAL Ca2+ EC50 HDP),Structure (SMILES)
> 10000 nM,1810 nM,5730 nM,> 10000 nM,312 nM,7560 nM,–,–,–,–,CCC(O)c1ccc(N2C(=O)CC[C@@H]2COCc2ccc(C(=O)O)s2)cc1 (stereo partly drawn)
> 10000 nM,8 nM,115 nM,> 10000 nM,–,3230 nM,–,–,–,–,CCCCCC(O)c1ccc(N2C(=O)CC[C@@H]2COCc2ccc(C(=O)O)s2)cc1 (stereo partly drawn)
–,–,–,–,–,–,> 10000 nM,–,–,–,CCCC1([C@@H](O)c2cccc([C@H]3CCC(=O)[C@@H]3C/C=C\CCCC(=O)OC)c2)CCC1
–,–,–,–,–,–,> 10000 nM,> 10000 nM,–,–,COC(=O)CCCCCC[C@H]1C(=O)CC[C@@H]1c1ccc(C(O)C2CCCCC2)cc1 (stereo partly drawn)
–,20 nM,190 nM,> 10000 nM,1.5 nM,5760 nM,–,–,–,–,CCCCCCC(O)c1ccc(N2C(=O)CC[C@@H]2COCc2ccc(C(=O)O)s2)cc1 (stereo partly drawn) [drawing 141]
> 10000 nM,30 nM,–,–,–,105 nM,–,–,47 nM,–,CCCCCCC(O)c1ccc(N2C(=O)CC[C@@H]2CCCc2ccc(C(=O)O)s2)cc1 (stereo partly drawn) [drawing 154]
–,20 nM,190 nM,> 10000 nM,1.5 nM,5760 nM,–,–,–,–,CCCCCCC(O)c1ccc(N2C(=O)CC[C@@H]2COCc2ccc(C(=O)O)s2)cc1 (stereo partly drawn) [drawing 169]
> 10000 nM,30 nM,–,–,–,105 nM,–,–,47 nM,–,CCCCCCC(O)c1ccc(N2C(=O)CC[C@@H]2CCCc2ccc(C(=O)O)s2)cc1 (stereo partly drawn) [drawing 182]
–,–,–,–,–,–,–,–,–,> 10000 nM,CCCC1([C@@H](O)c2ccc([C@H]3CCC(=O)[C@@H]3C/C=C\CCCC(=O)O)cc2)CCC1 [drawing 191]
